# Test results taken from patent US20110160462A1, “CRYSTALLINE FORMS OF THIAZOLIDINEDIONE COMPOUND AND ITS MANUFACTURING METHOD” (DAIICHI SANKYO COMPANY, LIMITED, priority 2008, published 2011).
# “Also recorded” adds a separate entry of the source. Read-outs that look alike come from different tables or passages of the source.
# Tests used:
# [1] = Solubility in dilute hydrochloric acid (Test Example 3); conditions: for The concentration of 5-(4-{[6-(4-amino-3,5-dimethylphenoxy)-1-methyl-1-H-benzimidazol-2-yl]methoxy}benzyl)-1,3-thiazolidine-2,4-dione in dilute hydrochloric acid: dilute hydrochloric acid 9.6 mg/g (pH about 0.7), 25° C., 500 mg in 5 mL, sampled after 6 minutes
# Description: Concentrated hydrochloric acid was diluted with water to prepare dilute hydrochloric acid (with a pH of about 0.7 at 25° C.) with a hydrochloric acid concentration of 9.6 mg/g, which was used as a test liquid. 500 mg of the crystalline form was weighed and added to 5 mL of the test liquid at 25° C. and stirred at the same temperature. After 6 minutes, the resulting test liquid was sampled and filtered. The concentration of 5-(4-{[6-(4-amino-3,5-dimethylphenoxy)-1-methyl-1-H-benzimi dazol-2-yl]methoxy}benzyl) 3-thiazolidine-2,4-dione in the filtrate was determined.
# The concentration of 5-(4-{[6-(4-amino-3,5-dimethylphenoxy)-1-methyl-1-H-benzimi dazol-2-yl]methoxy}benzyl) 3-thiazolidine-2,4-dione was determined by the method described below.
# Water, acetonitrile and methanol were mixed in a volume ratio of 55:40:5 to form a sample solvent.
# In the sample solvent was dissolved 0.2 g of isoamyl 4-hydroxybenzoate so that 200 mL of an internal standard solution was obtained. About 0.04 g of a standard sample of 5-(4-{[6-(4-amino-3,5-dimethylphenoxy)-1-methyl-1-H-benzimi dazol-2-yl]methoxy}benzyl)-1,3-thiazolidine-2,4-dione dihydrochloride monohydrate was precisely weighed, transferred to a 200 mL measuring flask and dissolved in the sample solvent to form 200 mL of a solution. 5 mL of the solution was precisely measured and transferred to a 50 mL measuring flask. 10 mL of the internal standard solution was precisely added to the measuring flask, and the sample solvent was further added thereto to form 50 mL of a standard solution.
# After sampling, the test liquid was filtered, and about 0.04 g of the filtered test liquid was precisely weighed and transferred to a 50 mL measuring flask. About 2.5 mL of dimethyl sulfoxide was added thereto. After 10 mL of the internal standard solution was added thereto, the sample solvent was further added thereto to form 50 mL of a sample solution.
# The concentration was measured under the test conditions below.
# The concentration is calculated from the following formula.
# The concentration (mg/g) of the test liquid=1000×(QT×WS×FP×502.58)/(QS×WT×40×593.52),
# wherein WS: the weight (g) of the standard sample when the standard solution is prepared; WT: the weight (g) of the test liquid when the sample solution is prepared; FP: the purity factor of the standard sample; QS: the value obtained by dividing the peak area of the standard sample in the chromatogram of the standard solution by the peak area of the internal standard; and QT: the value obtained by dividing the peak area of the sample in the chromatogram of the sample solution by the peak area of the internal standard.
# [2] = biological target: T1, peroxisome proliferator-activated receptor (PPAR) γ (Homo sapiens, UniProt P37231); conditions: as disclosed in Patent Documents 1 to 5; cited from earlier work
# T1 sequence (P37231 1-505): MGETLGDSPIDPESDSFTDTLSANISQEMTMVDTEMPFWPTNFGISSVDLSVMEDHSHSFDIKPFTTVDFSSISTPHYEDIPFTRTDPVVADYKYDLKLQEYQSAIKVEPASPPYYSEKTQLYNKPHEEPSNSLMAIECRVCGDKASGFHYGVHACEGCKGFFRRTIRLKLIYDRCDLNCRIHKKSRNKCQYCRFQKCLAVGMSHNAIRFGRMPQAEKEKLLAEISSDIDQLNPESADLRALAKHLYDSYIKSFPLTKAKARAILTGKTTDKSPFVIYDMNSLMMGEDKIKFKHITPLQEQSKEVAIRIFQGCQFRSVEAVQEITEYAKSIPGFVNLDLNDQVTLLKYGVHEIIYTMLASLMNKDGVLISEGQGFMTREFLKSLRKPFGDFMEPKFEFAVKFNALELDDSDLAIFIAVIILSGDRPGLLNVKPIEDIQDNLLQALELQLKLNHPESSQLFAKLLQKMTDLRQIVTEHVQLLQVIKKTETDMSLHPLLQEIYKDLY
# [3] = as disclosed in Japanese Patent No. 3488099; cited from earlier work
# [4] = system: cancer cells including human stomach cancer cells, human breast cancer cells, small cell lung cancer, pancreas cancer cells, prostate cancer cells, kidney …; conditions: Test Example 1 in WO 2007/091622; cited from earlier work
# human leukemia cells = conditions: Test Example 2 in WO 2007/091622; cited from earlier work
# [5] = system: human colon cancer cell lines; conditions: Test Example 3 in WO 2007/091622; cited from earlier work
# cancer cells [6] = conditions: in combination with an epidermal growth factor receptor (EGFR) inhibitor; Test Example 4 in WO 2007/091622; cited from earlier work
# [7] = system: human non-small-cell lung cancer; conditions: Test Example 5 in WO 2007/091622, cited from earlier work
# cancer cells [8] = conditions: in combination with a VEGFR inhibitor or a Raf kinase inhibitor; Test Example 6 in WO 2007/091622; cited from earlier work
# human kidney cancer = conditions: Test Example 7 in WO 2007/091622, cited from earlier work
smiles,measurement,setting,value
"Cc1cc(Oc2ccc3nc(COc4ccc(CC5SC(=O)NC5=O)cc4)n(C)c3c2)cc(C)c1N.Cl.Cl.O (centres unmarked) [5-(4-{[6-(4-amino-3,5-dimethylphenoxy)-1-methyl-1-H-benzimidazol-2-yl]methoxy}benzyl)-1,3-thiazolidine-2,4-dione dihydrochloride monohydrate]","The concentration of 5-(4-{[6-(4-amino-3,5-dimethylphenoxy)-1-methyl-1-H-benzimidazol-2-yl]methoxy}benzyl)-1,3-thiazolidine-2,4-dione in dilute hydrochloric acid",[1]; dihydrochloride monohydrate,0.276 mg/g
"Cc1cc(Oc2ccc3nc(COc4ccc(CC5SC(=O)NC5=O)cc4)n(C)c3c2)cc(C)c1N (centres unmarked) [Compound (I), 5-(4-{[6-(4-amino-3,5-dimethylphenoxy)-1-methyl-1-H-benzimidazol-2-yl]methoxy}benzyl)-1,3-thiazolidine-2,4-dione]",ability to activate PPAR γ,[2],significant ability to activate
same,activity to ameliorate insulin resistance and to reduce blood sugar,[3],significant activity to ameliorate insulin resistance and to reduce blood sugar
"Cc1cc(Oc2ccc3nc(COc4ccc(CC5SC(=O)NC5=O)cc4)n(C)c3c2)cc(C)c1N.Cl.Cl.O (centres unmarked) [Crystalline form A, 5-(4-{[6-(4-amino-3,5-dimethylphenoxy)-1-methyl-1-H-benzimidazol-2-yl]methoxy}benzyl)-1,3-thiazolidine-2,4-dione dihydrochloride monohydrate]","The concentration of 5-(4-{[6-(4-amino-3,5-dimethylphenoxy)-1-methyl-1-H-benzimidazol-2-yl]methoxy}benzyl)-1,3-thiazolidine-2,4-dione in dilute hydrochloric acid","[1]; listed as Crystalline form A manufactured according to Example 4, dihydrochloride monohydrate",0.325 mg/g
same,"Solubility / concentration in dilute hydrochloric acid, comparison in words","[1]; dilute hydrochloric acid, dihydrochloride monohydrate",highest concentration among the dihydrochloride monohydrate crystalline forms; also recorded: higher solubility than Crystalline form B
"Cc1cc(Oc2ccc3nc(COc4ccc(CC5SC(=O)NC5=O)cc4)n(C)c3c2)cc(C)c1N.Cl.Cl (centres unmarked) [dihydrochloride of Compound (I), 5-(4-{[6-(4-amino-3,5-dimethylphenoxy)-1-methyl-1-H-benzimidazol-2-yl]methoxy}benzyl)-1,3-thiazolidine-2,4-dione dihydrochloride]",activity to inhibit the growth of cancer cells,[4],significant activity to inhibit the growth
same,growth inhibition of human leukemia cells,human leukemia cells,significantly inhibits the growth-inhibiting activity
same,antitumor activity in vivo against human colon cancer cell lines,[5],significant antitumor activity
same,activity to inhibit the growth of cancer cells in combination,cancer cells [6],synergistic activity to inhibit the growth
same,antitumor activity against human non-small-cell lung cancer,[7]; alone,has antitumor activity
same,antitumor activity against human non-small-cell lung cancer in combination,[7]; in combination with an EGFR inhibitor,enhanced antitumor activity
same,activity to inhibit the growth of cancer cells in combination,cancer cells [8],synergistic activity to inhibit the growth
same,antitumor activity against human kidney cancer,human kidney cancer; alone,has antitumor activity
same,antitumor activity against human kidney cancer in combination,human kidney cancer; in combination with a VEGFR inhibitor or a Raf kinase inhibitor,enhanced antitumor activity
